Measurements as given in paper PMC10591924 (Journal of medicinal chemistry, 2023).

Tests used:
HDAC6 [1] = target: T1, HDAC6 (Homo sapiens, UniProt Q9UBN7); assay: IC50-shift experiments at HDAC6; format: biochemical; conditions: preincubation 5, 60 and 120 min
T1 sequence (Q9UBN7 1-1215): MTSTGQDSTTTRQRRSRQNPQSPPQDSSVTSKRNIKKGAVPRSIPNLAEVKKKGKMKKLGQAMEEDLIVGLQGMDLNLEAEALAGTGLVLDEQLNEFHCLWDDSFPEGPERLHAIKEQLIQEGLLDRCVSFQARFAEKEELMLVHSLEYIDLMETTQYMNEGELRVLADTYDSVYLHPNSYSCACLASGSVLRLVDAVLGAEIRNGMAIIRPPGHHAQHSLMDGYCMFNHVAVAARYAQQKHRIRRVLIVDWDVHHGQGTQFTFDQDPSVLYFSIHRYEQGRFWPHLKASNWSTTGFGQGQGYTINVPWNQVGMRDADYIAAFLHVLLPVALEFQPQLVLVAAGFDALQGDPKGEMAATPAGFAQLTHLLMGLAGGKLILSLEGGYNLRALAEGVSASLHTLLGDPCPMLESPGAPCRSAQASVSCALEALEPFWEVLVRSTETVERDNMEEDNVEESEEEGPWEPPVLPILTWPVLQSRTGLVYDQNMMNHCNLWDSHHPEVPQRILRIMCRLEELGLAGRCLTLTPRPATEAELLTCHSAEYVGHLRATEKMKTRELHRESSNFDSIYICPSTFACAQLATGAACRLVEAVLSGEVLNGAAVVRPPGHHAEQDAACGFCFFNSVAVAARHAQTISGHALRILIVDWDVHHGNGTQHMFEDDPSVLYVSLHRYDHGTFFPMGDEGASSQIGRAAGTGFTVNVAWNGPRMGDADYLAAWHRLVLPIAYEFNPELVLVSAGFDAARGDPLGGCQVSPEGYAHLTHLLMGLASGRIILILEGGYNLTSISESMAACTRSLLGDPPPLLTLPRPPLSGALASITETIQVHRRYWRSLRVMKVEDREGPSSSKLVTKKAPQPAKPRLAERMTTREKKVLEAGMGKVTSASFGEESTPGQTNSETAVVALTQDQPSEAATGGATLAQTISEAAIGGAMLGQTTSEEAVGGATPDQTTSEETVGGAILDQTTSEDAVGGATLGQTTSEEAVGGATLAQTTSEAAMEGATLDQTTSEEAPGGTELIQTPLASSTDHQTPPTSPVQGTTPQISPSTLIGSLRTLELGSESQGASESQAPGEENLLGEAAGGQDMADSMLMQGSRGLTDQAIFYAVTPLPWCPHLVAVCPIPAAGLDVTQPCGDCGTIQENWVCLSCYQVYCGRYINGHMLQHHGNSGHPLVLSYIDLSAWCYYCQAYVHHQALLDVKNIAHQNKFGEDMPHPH

HDAC6 [2] = target: T1, HDAC6; assay: Preincubation HDAC inhibition assay, HDAC6; format: biochemical; conditions: preincubation 1 h at 25 °C
HDAC1 = HDAC1 (Homo sapiens, UniProt Q13547); assay: Preincubation HDAC inhibition assay, HDAC1; format: biochemical; conditions: preincubation 1 h at 25 °C
Sequence of HDAC1 (Q13547 whole entry): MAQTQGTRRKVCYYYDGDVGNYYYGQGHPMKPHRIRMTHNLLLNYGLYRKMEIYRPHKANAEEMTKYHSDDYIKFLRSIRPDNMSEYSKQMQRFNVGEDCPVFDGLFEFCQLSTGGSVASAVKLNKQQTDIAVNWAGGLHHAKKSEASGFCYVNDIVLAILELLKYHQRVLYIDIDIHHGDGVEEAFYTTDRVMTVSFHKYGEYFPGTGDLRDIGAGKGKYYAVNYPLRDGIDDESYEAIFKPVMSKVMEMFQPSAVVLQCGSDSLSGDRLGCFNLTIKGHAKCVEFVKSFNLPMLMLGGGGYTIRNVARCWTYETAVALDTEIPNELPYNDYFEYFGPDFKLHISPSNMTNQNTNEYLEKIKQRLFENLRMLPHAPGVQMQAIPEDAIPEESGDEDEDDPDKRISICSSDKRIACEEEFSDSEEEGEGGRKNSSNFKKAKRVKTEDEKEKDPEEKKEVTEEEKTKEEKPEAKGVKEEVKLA

HDAC2 = HDAC2 (Homo sapiens, UniProt Q92769); assay: Preincubation HDAC inhibition assay, HDAC2; format: biochemical; conditions: preincubation 1 h at 25 °C
Sequence of HDAC2 (Q92769 whole entry): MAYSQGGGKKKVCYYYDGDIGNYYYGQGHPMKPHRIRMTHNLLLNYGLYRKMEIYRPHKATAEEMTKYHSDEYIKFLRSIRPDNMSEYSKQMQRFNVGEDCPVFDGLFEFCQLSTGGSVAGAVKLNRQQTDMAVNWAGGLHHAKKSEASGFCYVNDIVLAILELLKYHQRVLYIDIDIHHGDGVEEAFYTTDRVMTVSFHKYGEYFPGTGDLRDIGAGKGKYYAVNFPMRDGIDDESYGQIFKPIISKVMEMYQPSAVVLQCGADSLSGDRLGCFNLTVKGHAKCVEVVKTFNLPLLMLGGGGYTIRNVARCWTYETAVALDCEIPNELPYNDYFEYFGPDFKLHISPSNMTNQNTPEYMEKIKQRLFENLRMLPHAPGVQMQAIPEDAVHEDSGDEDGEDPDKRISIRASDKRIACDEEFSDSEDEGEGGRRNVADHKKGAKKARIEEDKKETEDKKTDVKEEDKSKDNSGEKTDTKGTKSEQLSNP

HDAC4 = HDAC4 (Homo sapiens, UniProt P56524); assay: Preincubation HDAC inhibition assay, HDAC4; format: biochemical; conditions: preincubation 1 h at 25 °C
Sequence of HDAC4 (P56524 whole entry): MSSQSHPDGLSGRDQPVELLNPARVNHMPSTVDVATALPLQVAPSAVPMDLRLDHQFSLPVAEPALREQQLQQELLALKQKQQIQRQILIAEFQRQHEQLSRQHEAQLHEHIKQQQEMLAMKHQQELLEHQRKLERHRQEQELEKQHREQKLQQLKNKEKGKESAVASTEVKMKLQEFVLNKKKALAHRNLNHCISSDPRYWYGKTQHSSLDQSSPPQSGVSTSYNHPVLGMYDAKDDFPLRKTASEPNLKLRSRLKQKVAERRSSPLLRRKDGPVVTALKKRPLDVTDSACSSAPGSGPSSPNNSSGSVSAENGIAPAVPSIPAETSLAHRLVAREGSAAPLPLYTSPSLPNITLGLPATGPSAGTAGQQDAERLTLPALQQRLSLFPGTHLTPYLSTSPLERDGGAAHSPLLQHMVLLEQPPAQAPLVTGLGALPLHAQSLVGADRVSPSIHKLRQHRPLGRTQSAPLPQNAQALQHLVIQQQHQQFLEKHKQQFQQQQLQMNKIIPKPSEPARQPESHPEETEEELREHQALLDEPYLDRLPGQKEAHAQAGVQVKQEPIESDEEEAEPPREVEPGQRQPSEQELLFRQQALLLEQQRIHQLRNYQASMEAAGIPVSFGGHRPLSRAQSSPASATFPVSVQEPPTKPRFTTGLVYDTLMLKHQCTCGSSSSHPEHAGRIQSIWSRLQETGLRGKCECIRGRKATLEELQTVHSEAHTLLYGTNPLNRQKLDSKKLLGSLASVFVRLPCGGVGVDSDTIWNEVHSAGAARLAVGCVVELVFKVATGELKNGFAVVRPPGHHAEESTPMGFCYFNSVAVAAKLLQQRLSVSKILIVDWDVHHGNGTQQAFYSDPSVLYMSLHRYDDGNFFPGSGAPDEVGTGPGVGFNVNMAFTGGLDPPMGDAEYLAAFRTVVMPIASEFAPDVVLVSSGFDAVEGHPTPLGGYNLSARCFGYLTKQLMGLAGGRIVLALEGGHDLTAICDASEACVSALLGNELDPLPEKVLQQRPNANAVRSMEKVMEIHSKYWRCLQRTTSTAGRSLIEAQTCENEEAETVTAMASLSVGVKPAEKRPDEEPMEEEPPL

HDAC6 [3] = target: T1, HDAC6; assay: Binding kinetics via the Progression Method at HDAC6; format: biochemical; conditions: progression curves, substrate at five times KM, 37 °C
[4] = LC-MS control: inhibitor in size exclusion buffer without enzyme; format: physicochemical; conditions: 100 μM inhibitor in size exclusion buffer only (pH 7.5), overnight

Compound	HDAC6 percent inhibition at 10 μM (HDAC6 [2])	HDAC1 percent inhibition at 10 μM (HDAC1)	HDAC2 percent inhibition at 10 μM (HDAC2)	HDAC4 percent inhibition at 10 μM (HDAC4)	Slow-binding mechanism from kobs vs inhibitor concentration (HDAC6 [3])	Hydrolysis in the absence of enzyme [4]	Dependence of HDAC6 inhibition on preincubation time (HDAC6 [1])
O=C(CCCCCCC(=O)Nc1ccccc1)NO [Vorinostat, reference compound]							did not depend on the preincubation time
CCCCN(Cc1ccc(-c2nnc(C(F)F)o2)cc1)C(=O)Nc1ccccc1 [Compound 9, 1-Butyl-1-{4-[5-(difluoromethyl)-1,3,4-oxadiazol-2-yl]benzyl}−3-phenylurea]	only moderate inhibitory activity	inactive	inactive	inactive			
FC(F)(F)c1nnc(-c2cnc(NCc3ccccc3)nc2)o1 [Compound 17, N-Benzyl-5-[5-(trifluoromethyl)-1,3,4-oxadiazol-2-yl]pyrimidin-2-amine]		no inhibition	no inhibition	no inhibition	single-step slow-binding mechanism I		substantial decrease in the HDAC6 IC50 values upon preincubation
CCCCN(Cc1ccc(-c2nnc(C(F)F)o2)cc1)C(=O)c1ccccc1 [Compound 10, N-Butyl-N-{4-[5-(difluoromethyl)-1,3,4-oxadiazol-2-yl]benzyl}benzamide]	only moderate inhibitory activity	inactive	inactive	inactive			
COc1ccc(CNc2ncc(-c3nnc(C(F)F)o3)cn2)cc1 [Compound 7, 5-[5-(Difluoromethyl)-1,3,4-oxadiazol-2-yl]-N-(4-methoxybenzyl)pyrimidin-2-amine]		no activity	no activity	no activity			
CN(C)c1ccc(C(=O)N(CC(=O)NCc2ccccc2)Cc2ccc(-c3nnc(C(F)F)o3)cc2)cc1 [Compound 12, N-[2-(Benzylamino)-2-oxoethyl]-N-{4-[5-(difluoromethyl)-1,3,4-oxadiazol-2-yl]benzyl}−4-(dimethylamino)benzamide]	only moderate inhibitory activity	inactive	inactive	inactive			

The next lines start with results.

HDAC6 percent inhibition at 10 μM (HDAC6 [2])	HDAC1 percent inhibition at 10 μM (HDAC1)	HDAC2 percent inhibition at 10 μM (HDAC2)	HDAC4 percent inhibition at 10 μM (HDAC4)	Slow-binding mechanism from kobs vs inhibitor concentration (HDAC6 [3])	Hydrolysis in the absence of enzyme [4]	Compound	Dependence of HDAC6 inhibition on preincubation time (HDAC6 [1])
	no activity	no activity	no activity	mechanism II	does not undergo hydrolysis	FC(F)c1nnc(-c2cnc(NCc3ccccc3)nc2)o1 [Compound 6, N-Benzyl-5-[5-(difluoromethyl)-1,3,4-oxadiazol-2-yl]pyrimidin-2-amine]	highly dependent on the preincubation time
does not show any inhibitory activity						O=C(NNC(=O)C(F)F)c1cnc(NCc2ccccc2)nc1 [Compound 13, 2-(Benzylamino)-N’-(2,2-difluoroacetyl)pyrimidine-5-carbohydrazide]	
